# Article PMC8151276, “An Integrated Approach toward NanoBRET Tracers for Analysis of GPCR Ligand Engagement” (Molecules, 2021)
# Key:
# ADORA2B = target: T1, ADORA2B (Homo sapiens, UniProt P29275); experiment: NanoBRET screen HiBiT-ADORA2B in HEK293; assay type: binding; conditions: ADORA2B
# T1 construct: purchased Promega (in-house HiBiT-GPCR construct library, NanoBRET)
# T1 sequence (P29275 1-332): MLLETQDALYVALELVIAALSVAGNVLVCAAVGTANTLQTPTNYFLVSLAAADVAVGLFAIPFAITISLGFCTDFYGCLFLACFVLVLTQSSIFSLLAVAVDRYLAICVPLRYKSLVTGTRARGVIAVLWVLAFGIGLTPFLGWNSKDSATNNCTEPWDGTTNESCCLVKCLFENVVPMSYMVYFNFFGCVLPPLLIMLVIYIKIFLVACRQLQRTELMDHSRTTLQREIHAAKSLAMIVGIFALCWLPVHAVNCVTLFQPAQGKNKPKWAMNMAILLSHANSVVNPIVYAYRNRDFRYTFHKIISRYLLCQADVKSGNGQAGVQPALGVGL
# Description: (§1) Each tracer candidate was screened across the entire library of HiBiT-GPCR constructs using NanoBRET as the detection modality. As depicted in Figure 4A, the specificity of interactions was evaluated through decrease in BRET due to competitive displacement of a bound tracer by excess parental compound. Each tracer was analyzed for binding to each HiBiT-GPCR fusion in the absence and in the presence of competing parental compound. Briefly, HEK293 cells were transfected with HiBiT-GPCR constructs diluted into promoterless DNA to reduce expression and maximize translocation to the cell surface. Each tracer candidate was then screened at concentrations of 1 μM and 0.1 μM across cells expressing these fusions. Cells were treated for 1.5 h with tracer either alone or in the presence of 20 μM competing parental compound (i.e., control). BRET was measured upon addition of purified LgBiT and subsequent complementation with HiBiT genetically fused to a GPCR. The specificity of interactions was assessed through a decrease in BRET signal due to competitive displacement of the bound tracer. To further gauge the robustness of these interactions, the fold response over the control (i.e., BRETtracer/BRETcontrol) was calculated. We chose a 1.5-fold response, which translates to ≥7-fold signal over noise as the minimal threshold required to score an interaction as positive. […]. Below we highlight the screening results obtained for our exemplary fluorescent tracers based on Clozapine, Amitriptyline and AZD1283.
# (§2) HiBiT-GPCR DNA constructs were diluted in 10 mM Tris pH 8 to a final concentration of 0.01 μg/μL, arrayed in 96-well plates and stored at −20 °C. For transfection, HEK293 cells were suspended in Opti-MEM (without phenol red) supplemented with 2% fetal bovine serum (Seradigm) and 100 units/mL penicillin–streptomycin (Gibco) at a final concentration of 220,000 cells/mL and dispensed into white 96-well plates at 90 μL/well. Subsequent transfections and screens were carried using an Agilent Bravo Automated Liquid Handling Platform. First, the 96-well HiBiT DNA arrays were diluted 25-fold in Opti-MEM (without serum or phenol red) to a final concentration of 0.0004 μg/μL and 20 μL of the diluted DNAs were transferred into new 96-well plates. Next, promoterless carrier DNA (1 μg/μL) was diluted 25-fold (0.04 μg/μL) and then dispensed into the diluted arrays at 20 μL/well. Following brief mixing, Viafect transfection reagent (Promega) diluted 16-fold into Opti-MEM was dispensed into the plates at 40 μL/well. After mixing by pipetting, plates were incubated for 10 min on the pipetting station deck. The DNA-transfection reagent complexes were then added to plates containing cells. To facilitate the screen, 10 μL of DNA-transfection reagent complexes were added in duplicates to the top 4 and bottom 4 rows, resulting in two identical 48-well arrays per plate. Plates with transfected cells were incubated for 18–20 h at 37 °C/5% CO2. A screen of each tracer across the entire library using two different concentrations requires duplicate plates of transfected cells. Depending on the number of tracers being screened, transfections can be scaled up using the same ratios. The next day, for each tracer, four 20× screening solutions in tracer dilution buffer (Promega) were prepared: two duplicates at final concentration of 20 μM and two duplicates at a final concentration of 2 μM. A competing unmodified compound was added to one of each duplicate at a final concentration of 400 μM. The four resulting solutions were diluted 4-fold in Opti-MEM without serum or phenol red to generate 5× solutions (5 µM and 0.5 µM tracer +/− 100 μM competing compound). To screen the library, a BioTek MultiFlo FX liquid dispenser was used to dispense 22.5 µL of tracer solution to the top 4 rows and 22.5 µL tracer + competing compound solution to the 4 bottom rows. Plates were briefly mixed on an orbital shaker and incubated for 1.5 h at room temperature. […]
# PTGER1 = target: T2, PTGER1 (Homo sapiens, UniProt P34995); experiment: NanoBRET screen HiBiT-PTGER1 in HEK293; assay type: binding; conditions: PTGER1
# T2 construct: purchased Promega (in-house HiBiT-GPCR construct library, NanoBRET)
# T2 sequence (P34995 1-402): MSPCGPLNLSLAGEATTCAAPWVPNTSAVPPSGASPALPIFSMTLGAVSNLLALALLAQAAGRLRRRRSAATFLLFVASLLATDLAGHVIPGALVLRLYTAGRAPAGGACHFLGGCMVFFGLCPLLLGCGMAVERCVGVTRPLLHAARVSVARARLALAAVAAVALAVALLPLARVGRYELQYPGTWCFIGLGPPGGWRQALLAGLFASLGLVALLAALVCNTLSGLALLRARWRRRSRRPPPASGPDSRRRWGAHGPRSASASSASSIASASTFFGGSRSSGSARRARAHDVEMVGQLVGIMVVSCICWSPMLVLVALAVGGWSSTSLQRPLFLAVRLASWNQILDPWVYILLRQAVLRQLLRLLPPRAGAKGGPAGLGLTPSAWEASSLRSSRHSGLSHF
# Description: as §1, §2
Structure (SMILES),NanoBRET Fold Response (ADORA2B; tracer 0.1μM),NanoBRET Fold Response (ADORA2B; tracer 1μM),NanoBRET Fold Response (PTGER1; tracer 0.1μM),NanoBRET Fold Response (PTGER1; tracer 1μM)
CC(C)N(CC[C@H](c1ccccc1)c1cc(CCNC(=O)c2ccc(CNC(=O)CCc3ccc4n3[B-](F)(F)[N+]3=C(c5ccc[nH]5)C=CC3=C4)cc2)ccc1O)C(C)C [Tolterodine-BZ-NB590],0.67,0.73,1.03,1.03
CCCn1c(=O)c2[nH]c(-c3ccc(OCC(=O)NCCNC(=O)CCOCCNC(=O)c4ccc(CNC(=O)CCc5ccc6n5[B-](F)(F)[N+]5=C(c7ccc[nH]7)C=CC5=C6)cc4)cc3)nc2n(CCC)c1=O [XAC-3-NB590],8.09,3.98,1.06,1.16
